Assay results: US20060153913A1, “Solid formulation with improved solubility and stability, and method for producing said formulation” (priority 2004, published 2006)

Legend:
Type in all cases: physicochemical
[1] = Dissolution test, second method of Japanese Pharmacopoeia (paddle method); conditions: after 60 minutes; paddle method 50 rpm, 0.1 w/v % sodium lauryl sulfate solution 900 mL, 37° C.
Description: Dissolution test was performed following the second method of Japanese Pharmacopoeia dissolution test method (paddle method, 50 rpm) using a 0.1 w/v % deaerated sodium lauryl sulfate solution (900 mL, 37° C.). The tablets (133.00 mg/tablet; containing 5 mg of bulk drug) produced in Example 1 were put into the test solution as they were. For referential control, the bulk drug consisting crystal was put into the test solution as it was. The temperature was adjusted to 37±0.1° C.

[2] = Stability test under humid condition at 40° C.; conditions: Immediately after Formulation
Description: Each of the powder formulations obtained in Example 3 was tested under heating condition at 40° C. under humid condition.

[3] = Stability test under heating condition at 80° C. (HPLC impurities, powder X-ray diffraction)
Description: Each of the powder formulations obtained in Example 3 was tested under heating condition at 80° C. The purity was determined by high performance liquid chromatography (measured wave length; 242 nm). The state of crystallization was estimated by powder X-ray diffraction.

[4] = 80° C., Open Condition, After 3 days

## CCOC(=O)C(COC(=O)Cc1ccc(NC(=O)c2ccccc2-c2ccc(C(F)(F)F)cc2)c(C(=O)N(C)C)c1)(C(=O)OCC)c1ccccc1 [MTP Inhibiting Compound, diethyl 2-(2-{3-dimethylcarbamoyl-4-[(4′-trifluoromethyl-biphenyl-2-carbonyl)-amino]-phenyl}-acetoxymethyl)-2-phenyl-malonate]
[1]
  dissolution: did not dissolve
[2]
  Impurities Max (%): 0.11%
  Impurities Total (%): 0.40%
[3]; [4]
  Impurities Max (%): 0.08%
  Impurities Total (%): 0.24%
[3]; Immediately after Formulation
  Impurities Max (%): 0.28%
  Impurities Total (%): 0.40%
